Patent US20200397795A1, “PROPHYLACTIC TREATMENT OF VENOUS THROMBOEMBOLISM” (JANSSEN PHARMACEUTICALS, INC., priority 2019, published 2020)

What was measured:
[1] = system: coagulation parameters (PT, PiCT, D-dimer); assay: MAGELLAN (Study 1): pharmacodynamics (PT, PiCT, D-dimer); type: in vivo, human; conditions: for Prothrombin time, overall median: full profile sampling
Protocol: Full profile pharmacodynamics (PD) sampling was performed in parallel to the PK samples on Day 1 and Day 10. In addition, sparse PD sampling was performed in nearly all subjects at 5 predefined time points: prior to study drug administration, around the time of peak plasma concentrations (2 to 4 hours after intake of the rivaroxaban tablet or rivaroxaban placebo tablet) on the first, 10th and 35th day of study drug administration, and before study drug administration on Day 10.
Coagulation parameters assessed included international normalized ratio (INR), prothrombin time (PT), prothrombinase-induced clotting time (PiCT), and the fibrin degradation product, D-dimer. Pharmacodynamic parameters assessed included changes to baseline of the maximal effect (Emax) and changes to baseline at trough (Etrough).
Two sets of samples were evaluated for PD parameters: Full profile PD sampling in parallel to the PK samples on Day 1 and Day 10. In addition, sparse PD sampling in nearly all subjects at 5 predefined time points: prior to study drug administration, approximately the time of peak plasma concentrations (2 to 4 hours after intake of the rivaroxaban tablet or rivaroxaban placebo tablet) on the first, 10th and 35th day of study drug administration, and before study drug administration on Day 10.

[2] = system: venous thromboembolism (VTE) in MAGELLAN subpopulation; assay: Retrospective analysis of MAGELLAN subpopulation (five bleeding risk factors excluded): efficacy; type: in vivo, human; conditions: for Primary efficacy endpoint outcome, incidence: Day 10, per-protocol analysis set; for Asymptomatic lower extremity proximal DVT, incidence / VTE-related death, incidence: Day 35
Description: Using key exclusion criteria from Study 2: MARINER to exclude subjects with a higher risk of bleeding, a subpopulation of Study 1: MAGELLAN was retrospectively analyzed to re-evaluate benefit-risk in this subpopulation, which included efficacy endpoints of symptomatic VTE and VTE-related death and safety endpoints of major bleeding events. The key exclusion criteria from Study 2: MARINER that were retrospectively applied to the Study 1: MAGELLAN population for this analysis included: active gastroduodenal ulcer within 3 months of randomization/currently symptomatic; any bleeding within 3 months prior to randomization or during index hospitalization; active cancer at randomization; medical history of severe bronchiectasis/pulmonary cavitation; or dual antiplatelet therapy at baseline. Subjects that met one or more of these criteria prior to or at randomization using standardized MedDRA queries or preferred terms of MedDRA version 13.1 based on data entered into the case report forms in the original MAGELLAN database were excluded from the subpopulation analysis.
The MAGELLAN study (Study 1) randomized 8,101 patients from 562 sites in 52 countries and the safety population of patients that received at least one dose of study medication was 7,998 patients. The five key risk factors for major bleeding events in MAGELLAN were identified using study data forms as described herein. With the retrospective use of these risk factors, 1,551 patients were excluded from MAGELLAN and the remaining 6,447 patients, approximately 80% of MAGELLAN, represented the subpopulation. Patients in both treatment groups had no differences in baseline characteristics, and had similar medical histories, with at least 99% of patients having complete immobility or decreased mobility and median total number of days in hospital of 10.

[3] = acute respiratory insufficiency, Baseline
[4] = acute respiratory insufficiency, Day 1 peak
[5] = acute respiratory insufficiency, Day 10 peak
[6] = acute respiratory insufficiency, Day 10 trough
[7] = entire study population, Baseline
[8] = entire study population, Day 1 peak
[9] = entire study population, Day 10 peak
[10] = entire study population, Day 35 peak

| Molecule | Mean peak concentration expressed in IU/mL (PiCT two step) ([1]; Day 1) | Mean peak concentration expressed in IU/mL (PiCT two step) ([1]; Day 10) | D-dimer, median [1, 3] [µg/mL] | D-dimer, median [1, 4] [µg/mL] | D-dimer, median [1, 5] [µg/mL] | D-dimer, median [1, 6] [µg/mL] | D-dimer, median [1, 7] [µg/mL] | D-dimer, median [1, 8] [µg/mL] | D-dimer, median [1, 9] [µg/mL] | D-dimer, median [1, 10] [µg/mL] | Prothrombin time, median ([1]; sparse sampling, Baseline) [s] | Prothrombin time, median ([1]; sparse sampling, Day 1 peak) [s] | Prothrombin time, median ([1]; sparse sampling, Day 10 peak) [s] | Prothrombin time, median ([1]; sparse sampling, Day 35 peak) [s] | Primary efficacy endpoint outcome, incidence [2] [%] | Asymptomatic lower extremity proximal DVT, incidence [2] [%] | VTE-related death, incidence [2] [%] | Primary efficacy outcome, incidence ([2]; Day 35, mITT) [%] | other results |
| --- | --- | --- | --- | --- | --- | --- | --- | --- | --- | --- | --- | --- | --- | --- | --- | --- | --- | --- | --- |
| O=C(NC[C@H]1CN(c2ccc(N3CCOCC3=O)cc2)C(=O)O1)c1ccc(Cl)s1 [Rivaroxaban, 5-chloro-N-({(5S)-2-oxo-3-[4-(3-oxo-4-morpholinyl)phenyl]-1,3,oxazolidin-5-yl}methyl)-2-thiophenecarboxamide] | below the lower limit of quantitation | below the lower limit of quantitation | 1.48 | 1.44 | 1.37 | 1.18 | 0.94 | 0.90 | 0.64 | 0.45 | 14.3 | 19.3 | 19.3 | 18.6 | 2.4 | 3.0 | 0.6 | 3.9 | Mean peak concentration of rivaroxaban (PiCT one step) ([1]; Day 1): 198.8 µg/L; Mean peak concentration of rivaroxaban (PiCT one step) ([1]; Day 10): 202.78 µg/L; Mean peak concentration of rivaroxaban (PiCT one step) ([1]; Day 35): 168 µg/L; D-dimer, median ([1]; acute infectious disease, Baseline): 1.76 µg/mL; D-dimer, median ([1]; acute infectious disease, Day 1 peak): 2.07 µg/mL; D-dimer, median ([1]; acute infectious disease, Day 10 peak): 2.13 µg/mL; D-dimer, median ([1]; acute infectious disease, Day 10 trough): 1.74 µg/mL; Prothrombin time, overall median ([1]; peak Day 1): 23.5 s; Prothrombin time, overall median ([1]; peak Day 10): 23.2 s; Change in clotting time, PiCT two step ([1]; sparse sampling): No change; Prolongation of PiCT one step assay ([1]; sparse sampling, Day 1): 14.6 s; Prolongation of PiCT one step assay ([1]; sparse sampling, Day 10): 13.1 s; Primary efficacy endpoint, RR vs enoxaparin ([2]; Day 10, per-protocol): 0.820; Primary efficacy outcome, RR vs enoxaparin ([2]; Day 35, mITT): 0.68 |
| Enoxaparin | 0.32 IU/mL | 0.31 IU/mL | 0.57 | 0.66 | 0.70 | 0.46 | 0.95 | 0.94 | 0.66 | 0.67 | 14.4 | 14.8 | 14.2 | 13.8 | 3.0 | 4.4 | 1.0 | 5.7 | Baseline value expressed in IU/mL (PiCT two step) ([1]; Day 1): below the lower limit of quantitation; Trough concentration expressed in IU/mL (PiCT two step) ([1]; Day 10): 0.11 IU/mL; Influence on prothrombin time ([1]; in vivo): no influence; Change in clotting time, PiCT one step ([1]; sparse sampling): No change; Prolongation of PiCT two step assay ([1]; sparse sampling, Day 1): 23.6 s; Prolongation of PiCT two step assay ([1]; sparse sampling, Day 10): 19.8 s |
